Measured values as given in patent US20230183193A1, “4-DIFLUOROMETHYL BENZOYL AMIDES WITH HERBICIDAL ACTION” (BAYER CROPSCIENCE AKTIENGESELLSCHAFT, priority 2017, published 2023).

Columns and labels:
Format in all cases: in vivo
[1] = system: Abutilon theophrasti; assay: Pre-emergence herbicidal action, ABUTH; details: dosage 320 g/ha, scored visually after 3 weeks vs untreated controls
Procedure, shortened: (§1)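 Weed seeds were laid out in sandy loam and covered with soil, then the soil surface was treated with an aqueous suspension or emulsion of the formulated compound containing 0.2% wetting agent. Pots stayed in the greenhouse for 3 weeks before damage was rated visually against untreated plants.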

[2] = system: Alopecurus myosuroides; assay: Post-emergence herbicidal action, ALOMY; details: 80 g/ha, Table C
Procedure, shortened: (§2)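 Post-emergence spray; one-leaf stage (2–3 wk after sowing), sandy loam, greenhouse. WP/EC in water, 600 to […], +0.2% wetting agent. Visual % damage vs untreated at ~3 wk; 100% = plants dead.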

[3] = system: Cyperus serotinus; assay: Pre-emergence herbicidal action, CYPES; details: dosage 320 g/ha, scored visually after 3 weeks vs untreated controls
Procedure, shortened: as §1

[4] = system: Matricaria inodora; assay: Pre-emergence herbicidal action, MATIN; details: dosage 320 g/ha, scored visually after 3 weeks vs untreated controls
Procedure, shortened: as §1

[5] = system: Amaranthus retroflexus; assay: Pre-emergence herbicidal action, AMARE; details: dosage 320 g/ha, scored visually after 3 weeks vs untreated controls
Procedure, shortened: as §1

[6] = system: Stellaria media; assay: Pre-emergence herbicidal action, STEME; details: dosage 320 g/ha, scored visually after 3 weeks vs untreated controls
Procedure, shortened: as §1

[7] = system: Stellaria media; assay: Post-emergence herbicidal action, STEME; details: 80 g/ha, Table D
Procedure, shortened: as §2

[8] = system: Pharbitis purpureum; assay: Post-emergence herbicidal action, PHBPU; details: 80 g/ha, Table D
Procedure, shortened: as §2

[9] = system: Viola tricolor; assay: Post-emergence herbicidal action, VIOTR; details: 80 g/ha, Table D
Procedure, shortened: as §2

[10] = system: ECHCG; assay: Post-emergence herbicidal action, ECHCG; details: 80 g/ha, Table C
Procedure, shortened: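 Weed and crop plants grown in sandy loam in the greenhouse, treated at the one-leaf stage 2–3 weeks after sowing. Damage scored visually after about 3 weeks vs untreated controls (0% = control, 100% = dead).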

[11] = system: Avena fatua; assay: Post-emergence herbicidal action, AVEFA; details: 80 g/ha, Table C
Procedure, shortened: as §2

[12] = system: Avena fatua; assay: Pre-emergence herbicidal action, AVEFA; details: dosage 320 g/ha, scored visually after 3 weeks vs untreated controls
Procedure, shortened: as §1

[13] = system: Viola tricolor; assay: Pre-emergence herbicidal action, VIOTR; details: dosage 320 g/ha, scored visually after 3 weeks vs untreated controls
Procedure, shortened: as §1

[14] = system: Abutilon theophrasti; assay: Post-emergence herbicidal action, ABUTH; details: 80 g/ha, Table D
Procedure, shortened: as §2

[15] = system: Setaria viridis; assay: Pre-emergence herbicidal action, SETVI; details: dosage 320 g/ha, scored visually after 3 weeks vs untreated controls
Procedure, shortened: as §1

[16] = system: Setaria viridis; assay: Post-emergence herbicidal action, SETVI; details: 80 g/ha, Table C
Procedure, shortened: as §2

[17] = system: Amaranthus retroflexus; assay: Post-emergence herbicidal action, AMARE; details: 80 g/ha, Table D
Procedure, shortened: as §2

[18] = system: Alopecurus myosuroides; assay: Pre-emergence herbicidal action, ALOMY; details: dosage 320 g/ha, scored visually after 3 weeks vs untreated controls
Procedure, shortened: as §1

CCSc1c(C(F)F)ccc(C(=O)Nc2nnc(C)o2)c1CC [Example 7-14]
90%: herbicidal activity ALOMY [2] | herbicidal activity MATIN [4] | Herbicidal activity PHBPU [8] | Herbicidal activity ECHCG [10] | herbicidal activity SETVI [16]
100%: herbicidal activity ABUTH [1] | herbicidal activity CYPES [3] | herbicidal activity AMARE [5] | Herbicidal activity STEME [6] | Herbicidal activity STEME [7] | herbicidal activity VIOTR [9] | herbicidal activity AVEFA [11] | herbicidal activity AVEFA [12] | herbicidal activity VIOTR [13] | herbicidal activity ABUTH [14] | herbicidal activity SETVI [15] | herbicidal activity AMARE [17] | herbicidal activity ALOMY [18]

CCSc1c(C(F)F)ccc(C(=O)Nc2nnnn2C)c1F [Example 1-40]
100%: herbicidal activity ABUTH [1] | herbicidal activity CYPES [3] | herbicidal activity MATIN [4] | herbicidal activity AMARE [5] | Herbicidal activity STEME [6] | Herbicidal activity PHBPU [8] | Herbicidal activity ECHCG [10] | herbicidal activity VIOTR [13] | herbicidal activity ABUTH [14] | herbicidal activity SETVI [15] | herbicidal activity SETVI [16] | herbicidal activity AMARE [17] | herbicidal activity ALOMY [18]
90%: herbicidal activity ALOMY [2] | Herbicidal activity STEME [7] | herbicidal activity VIOTR [9] | herbicidal activity AVEFA [12]
80%: herbicidal activity AVEFA [11]

CCn1nnnc1NC(=O)c1ccc(C(F)F)c(S(C)(=O)=O)c1Br [Example 2-63]
100%: herbicidal activity ABUTH [1] | herbicidal activity ALOMY [2] | herbicidal activity MATIN [4] | herbicidal activity AMARE [5] | Herbicidal activity STEME [6] | Herbicidal activity STEME [7] | Herbicidal activity PHBPU [8] | herbicidal activity VIOTR [9] | Herbicidal activity ECHCG [10] | herbicidal activity AVEFA [11] | herbicidal activity AVEFA [12] | herbicidal activity VIOTR [13] | herbicidal activity ABUTH [14] | herbicidal activity SETVI [15] | herbicidal activity SETVI [16] | herbicidal activity AMARE [17] | herbicidal activity ALOMY [18]
90%: herbicidal activity CYPES [3]

CCn1nnnc1NC(=O)c1ccc(C(F)F)c([S+]([O-])CC)c1C (stereo not drawn) [Example 2-5]
90%: herbicidal activity ALOMY [2] | Herbicidal activity STEME [6] | Herbicidal activity PHBPU [8] | herbicidal activity AVEFA [12]
100%: herbicidal activity ABUTH [1] | herbicidal activity MATIN [4] | herbicidal activity AMARE [5] | Herbicidal activity STEME [7] | herbicidal activity VIOTR [9] | Herbicidal activity ECHCG [10] | herbicidal activity AVEFA [11] | herbicidal activity VIOTR [13] | herbicidal activity ABUTH [14] | herbicidal activity SETVI [15] | herbicidal activity SETVI [16] | herbicidal activity AMARE [17] | herbicidal activity ALOMY [18]
80%: herbicidal activity CYPES [3]

CC[S+]([O-])c1c(C(F)F)ccc(C(=O)Nc2nnc(C)o2)c1I (stereo not drawn) [Example 7-75]
100%: herbicidal activity ABUTH [1] | herbicidal activity CYPES [3] | herbicidal activity MATIN [4] | herbicidal activity AMARE [5] | Herbicidal activity STEME [6] | herbicidal activity VIOTR [9] | Herbicidal activity ECHCG [10] | herbicidal activity AVEFA [11] | herbicidal activity AVEFA [12] | herbicidal activity VIOTR [13] | herbicidal activity SETVI [15] | herbicidal activity AMARE [17] | herbicidal activity ALOMY [18]
90%: herbicidal activity ABUTH [14] | herbicidal activity SETVI [16]
80%: herbicidal activity ALOMY [2] | Herbicidal activity STEME [7] | Herbicidal activity PHBPU [8]

CCn1nnnc1NC(=O)c1ccc(C(F)F)c(S(=O)(=O)CC)c1C1CC1 [Example 2-30]
100%: herbicidal activity ABUTH [1] | herbicidal activity MATIN [4] | herbicidal activity AMARE [5] | Herbicidal activity STEME [6] | Herbicidal activity STEME [7] | herbicidal activity VIOTR [9] | Herbicidal activity ECHCG [10] | herbicidal activity AVEFA [12] | herbicidal activity VIOTR [13] | herbicidal activity ABUTH [14] | herbicidal activity SETVI [15] | herbicidal activity SETVI [16] | herbicidal activity AMARE [17] | herbicidal activity ALOMY [18]
90%: herbicidal activity ALOMY [2] | herbicidal activity CYPES [3] | Herbicidal activity PHBPU [8] | herbicidal activity AVEFA [11]

CCSc1c(C(F)F)ccc(C(=O)Nc2nnc(C)o2)c1Br [Example 7-62]
90%: herbicidal activity ALOMY [2] | herbicidal activity MATIN [4] | Herbicidal activity PHBPU [8] | herbicidal activity AVEFA [12]
80%: herbicidal activity CYPES [3]
100%: herbicidal activity ABUTH [1] | herbicidal activity AMARE [5] | Herbicidal activity STEME [6] | Herbicidal activity STEME [7] | herbicidal activity VIOTR [9] | Herbicidal activity ECHCG [10] | herbicidal activity AVEFA [11] | herbicidal activity VIOTR [13] | herbicidal activity ABUTH [14] | herbicidal activity SETVI [15] | herbicidal activity SETVI [16] | herbicidal activity AMARE [17] | herbicidal activity ALOMY [18]

CCc1c(C(=O)Nc2nnnn2C)ccc(C(F)F)c1S(=O)(=O)CC [Example 1-18]
100%: herbicidal activity ABUTH [1] | herbicidal activity CYPES [3] | herbicidal activity MATIN [4] | herbicidal activity AMARE [5] | Herbicidal activity STEME [6] | Herbicidal activity STEME [7] | herbicidal activity VIOTR [9] | herbicidal activity AVEFA [11] | herbicidal activity AVEFA [12] | herbicidal activity VIOTR [13] | herbicidal activity ABUTH [14] | herbicidal activity SETVI [15] | herbicidal activity SETVI [16] | herbicidal activity AMARE [17] | herbicidal activity ALOMY [18]
90%: herbicidal activity ALOMY [2] | Herbicidal activity PHBPU [8] | Herbicidal activity ECHCG [10]
